Assay results taken from PubChem BioAssay AID1996.
≈ marks a conversion by molar mass, not a printed value.

conditions: buffer; pH 7.4; 200.0 µM

| solubility kinetic [µg/mL] | Structure (SMILES) |
| --- | --- |
| 4.1 (≈ 15.2 µM) | Cc1cc(C)cc(NC(=O)CCOc2ccccc2)c1 |
| > 53 | CCN(CC)Cc1c(O)ccc2c(=O)c(-c3ccccc3OC)coc12 |
| > 56.2 | O=C(O)C1C2CCC(CC2)C1C(=O)N1CCN(Cc2ccc(F)cc2)CC1 (stereo not drawn) |
| 2.5 (≈ 7.32 µM) | Cc1ccc(C(=O)Oc2ccc(C(=S)N3CCOCC3)cc2)cc1 |
| 26.3 (≈ 74.4 µM) | COc1ccc2[nH]cc(CCNC(=S)NCCc3ccccc3)c2c1 |
| > 51.6 | O=C(COC(=O)c1c(Cl)cccc1Cl)NCc1cccs1 |
| 18.5 (≈ 50.3 µM) | CCCOP(=O)(c1ccc(N(C)C)cc1)C(O)c1ccc(Cl)cc1 (stereo not drawn) |
| 38.5 | CCN(CC)CCOC(=O)/C=C/c1ccccc1.Cl |
| 7.2 (≈ 21.2 µM) | CC(C)[C@H](NS(=O)(=O)c1ccccc1)C(=O)Nc1nccs1 |
| < 0.6 | C/C(O)=c1/c(=O)nc2cccc3c2=c1c1ccccc1c3=O |
| > 50 | COc1ccccc1C(=O)NCC(=O)NNC(=O)c1cccs1 |
| > 28.5 | O=[N+]([O-])c1ccc(O)c2ncccc12 |
| > 44.5 | NS(=O)(=O)c1ccc(NC(=O)Cc2cccs2)cc1 |
| > 48.1 | O=C(c1ccco1)N1CCN(S(=O)(=O)c2ccccc2)CC1 |
| > 49 | CCOc1ccc(CN(C)C(C)C(=O)NCc2ccccc2)cc1 (stereo not drawn) |
| > 39.5 | Cc1cccc(C)c1NC(=O)CNCC(=O)N(C)C |
| 2.1 (≈ 6.25 µM) | O=C(Nc1cccc(/C=C/c2ccccn2)c1)c1cc(Cl)ccn1 |
| 12.4 (≈ 39.3 µM) | O=C(Cc1ccc(Cl)cc1Cl)Nc1ccncc1Cl |
| 0.8 (≈ 2.15 µM) | Cc1cccc(-n2c(O)c(C=Nc3cccc(O)c3)c3ccccc3c2=O)n1 |
| > 52.1 | CCCn1c(SCC(=O)N2CC(=O)Nc3ccccc32)n[nH]c1=O |
| 36.2 (≈ 125 µM) | COc1ccc2[nH]c(C(=O)N3CCNCC3)cc2c1OC |
| 20.8 (≈ 64.5 µM) | COC(=O)c1sccc1NC(=O)CSc1ccccc1N |
| 40.6 (≈ 141 µM) | O=S(=O)(NC1CCCCCC1)c1cccc(Cl)c1 |
| 27 (≈ 83 µM) | Cc1cccc(N2CC(C)Cn3c2nc2c3c(=O)[nH]c(=O)n2C)c1 (stereo not drawn) |

| solubility kinetic [µg/mL] | Structure (SMILES) |
| --- | --- |
| > 46.3 | CCN(c1cccc(C)c1)C1C(=O)c2ccccc2N1C(C)=O (stereo not drawn) |
| > 45.8 | CC(=O)Nc1ccc(C(=O)COC(=O)c2ccco2)c(F)c1 |
| 5.3 (≈ 15.3 µM) | CC1CC(C)(C)NC(=S)N1CCC(=O)N1c2ccccc2CC1C (stereo not drawn) |
| > 49.7 | COc1cc(C(=O)O/N=C(\N)c2ccccn2)cc(OC)c1OC |
| 16.9 (≈ 48.5 µM) | NC(=O)c1ccsc1NC(=O)COC(=O)CCOc1ccccc1 |
| > 37.1 | Cn1cccc1/C=N/NC(=O)Cc1cccs1 |
| 18.4 (≈ 72.4 µM) | Cc1ccc(-c2nc(C(F)(F)F)cc(=O)[nH]2)cc1 |
| 26.1 (≈ 72.1 µM) | O=C(COC(=O)COc1ccc(Cl)cc1)NCCCc1ccccc1 |
| > 41.6 | Cn1c(=O)c2c(nc(NC3CCCC3)n2C)n(C)c1=O |
| > 47.2 | O=C1[C@@H]2CSCN2C(=O)CN1Cc1c(F)cccc1Cl |
| > 47.8 | O=C1CCC(C(=O)N2CCCC2)CN1CCc1cccc(F)c1 (stereo not drawn) |
| > 41.3 | Cc1ccc(NC(=O)CC2(CC(=O)O)CCCC2)cc1 |
| 34.6 (≈ 144 µM) | Nc1nc(Cl)c(C=O)c(N2CCCCC2)n1 |
| > 46.6 | CCCn1c(SCC(=O)NC2CCCC2)nnc1C(C)C |
| < 0.6 | O=C(Nc1ccc(F)cc1)c1cccc2ccccc12 |
| > 77.3 | Cc1c(CCOC(=O)c2ccc(Cl)cc2Cl)sc[n+]1CC(=O)c1ccccc1.[Br-] |
| 36.1 (≈ 147 µM) | Cc1cccc(N2C(=O)C3CCCN3C2=S)c1 (stereo not drawn) |
| > 49 | COc1ccc(S(=O)(=O)NC2CC(C)(C)NC(C)(C)C2)cc1 |
| 31.2 (≈ 102 µM) | CCN(CC)CCNC(=O)c1cc2ccccc2nc1Cl |
| > 50.8 | CCCCN(C(=O)C1CCCO1)c1c(N)n(CCC)c(=O)[nH]c1=O (stereo not drawn) |
| < 0.4 | Cc1ccc(C(C)C)cc1OCC(=O)Nc1ccccc1N1CCCC1 |
| 3.3 (≈ 11 µM) | Cc1ccc(NC(=S)NC(=O)Cc2ccccc2)c(O)c1 |
| > 36.3 | Cc1cc(C(=O)N2CCc3ccccc3C2)no1 |
| 5 (≈ 14.6 µM) | O=C(COc1ccc(Cl)cc1Br)Nc1ccncc1 |
